Measurements published in US10906946B2, “Thrombin inhibitors” (priority 2015, dated 2021).
“And” between values parts separate entries of the source, which are not always exact repeats. Equal values may be shown once. Peptide text beside a SMILES is read from it.

Target: T1, human α-thrombin (Homo sapiens, UniProt P00734)
T1 construct: residues in the termini of the light chain; purchased Chemo-Sero-Therapeutic Research Institute (Kaketsuken, Japan), as a gift, not bought
Assay: Thrombin amidolytic activity assay with chromogenic substrate S2238
Type: biochemical
Conditions: for Hill slope of thrombin amidolytic inhibition: 0 min pre-incubation where stated; for Hill Slope: Table 2
Procedure: Thrombin amidolytic activity assays for all peptides were performed in 96-wells microtiter plates in 50 mM Tris buffer (pH 7.4) containing 100 mM NaCl and 1 mg/ml bovine serum albumin. […] The rates of formation of p-nitroaniline were followed by measuring the absorbance at 405 nm for 10 min with a Tecan InfinitePro M200 microplate reader from Tecan (Männedorf, Switzerland). Dose-response curves were fitted using the GraphPad Prizm software (San Diego, Calif., USA) to calculate IC50 values and Hill coefficients. To measure the inhibitory constants, different concentrations of S2238 were used and the residual velocities were determined using the Morrison's tight binding equation. Inhibition of thrombin fibrinogenolytic activity of peptides were tested by measuring absorbance at 650 nm using a Sunrise microplate reader from Tecan (Männedorf, Switzerland) as described previously [Koh C Y, et al., J Biol Chem 282: 29101-13 (2007)]. The selectivity of avathrin was examined against 13 serine proteases (FIG. 5). Effects of avathrin on the amidolytic activities of these serine proteases were determined using respective chromogenic substrates. […] Avathrin (150 μM) was incubated with thrombin (5 μM), in 50 mM Tris buffer (pH 7.4) containing 150 mM NaCl and 1 mg/ml BSA. After different incubation times, reactions were quenched with 1% TFA (pH 1.8) and loaded onto a Jupiter Proteo column (4 μm, 90 Å, 100×1.0 mm) attached to a Dionex nano-HPLC system from Thermo Fisher Scientific (Waltham, Mass., USA) and eluted using an acetonitrile gradient with 0.05% TFA and 99.95% MilliQ water as eluent A and 0.05% TFA, 19.95% MilliQ water and 80% ACN as eluent B. Masses of all peaks were measured to identify cleavage products, which were subsequently quantified by integrating the peaks and calculating the area under the curves. To measure the effect of different pre-incubation times on the thrombin inhibitory activity, amidolytic assays were performed for various incubation times (up to 36 h).

[1] = IC50 of inhibition of thrombin amidolytic activity, thrombin 0.81 nM, S2238 100 μM, without pre-incubation (0 min) where stated
[2] = inhibitory constant Ki for thrombin, thrombin 0.81 nM, various S2238 concentrations

Structure (SMILES): CC[C@H](C)[C@H](NC(=O)[C@H](CC(=O)O)NC(=O)[C@H](CCC(=O)O)NC(=O)[C@H](Cc1ccccc1)NC(=O)[C@H](CC(=O)O)NC(=O)CNC(=O)CNC(=O)[C@H](CC(C)C)NC(=O)CNC(=O)[C@H](CCCCN)NC(=O)[C@H](CCCNC(=N)N)NC(=O)[C@H](CO)NC(=O)[C@H](CCSC)NC(=O)[C@H](CCCCN)NC(=O)[C@@H]1CCCN1C(=O)[C@@H](NC(=O)[C@H](C)NC(=O)[C@@H](NC(=O)[C@H](Cc1c[nH]cn1)NC(=O)[C@H](CC(=O)O)NC(=O)[C@H](CCC(=O)O)NC(=O)CNC(=O)[C@@H](N)CO)[C@@H](C)O)C(C)C)C(=O)N1CCC[C@H]1C(=O)N1CCC[C@H]1C(=O)N[C@@H](CCC(=O)O)C(=O)N[C@@H](C)C(=O)N[C@@H](Cc1ccc(O)cc1)C(=O)N[C@@H](CCC(=O)O)C(=O)N[C@@H](CCCNC(=N)N)C(=O)N[C@@H](C)C(=O)N[C@@H](CC(C)C)C(=O)N[C@@H](CCC(=O)O)C(=O)N[C@@H](C)C(=O)N[C@@H](CCCNC(=N)N)C(=O)O [Amblyomma americanum] (H-SGEDHTAVPKMSRKGLGGDFEDIPPEAYERALEAR-OH)
- Ki (Affinity (nM), Table 4, Ki values): 1.63 ± 0.61 nM
- IC50 (IC50 (nM), Table 4, members of variegin family): 14.29 ± 0.12 nM

Structure (SMILES): CC[C@H](C)[C@H](NC(=O)[C@H](CCCCN)NC(=O)[C@@H]1CCCN1C(=O)[C@@H](NC(=O)[C@H](C)NC(=O)[C@@H](NC(=O)[C@H](CC(=O)O)NC(=O)[C@H](Cc1c[nH]cn1)NC(=O)CNC(=O)[C@H](CC(=O)O)NC(=O)[C@@H](N)CO)[C@@H](C)O)C(C)C)C(=O)N[C@@H](CO)C(=O)N[C@@H](CCCCN)C(=O)N[C@@H](CCC(N)=O)C(=O)NCC(=O)N[C@@H](CC(C)C)C(=O)NCC(=O)NCC(=O)N[C@@H](CC(=O)O)C(=O)N[C@@H](Cc1ccccc1)C(=O)N[C@@H](CCC(=O)O)C(=O)N[C@@H](CCC(=O)O)C(=O)N[C@H](C(=O)N1CCC[C@H]1C(=O)N[C@@H](CO)C(=O)N[C@@H](CC(=O)O)C(=O)N[C@@H](CCC(=O)O)C(=O)N[C@H](C(=O)N[C@H](C(=O)N[C@@H](CCC(=O)O)C(=O)O)[C@@H](C)CC)[C@@H](C)CC)[C@@H](C)CC [G2D, Q5D] (H-SDGHDTAVPKISKQGLGGDFEEIPSDEIIE-OH)
- fold drop in potency compared with avathrin: < 2 fold
- Hill slope of thrombin amidolytic inhibition: 0.71±0.03
- IC50 [1]: 13 ± 1.23 nM
- Hill Slope: 0.71 ± 0.03

Structure (SMILES): CC[C@H](C)[C@H](NC(=O)[C@H](CCCCN)NC(=O)[C@@H]1CCCN1C(=O)[C@@H](NC(=O)[C@H](C)NC(=O)[C@@H](NC(=O)[C@H](CCC(N)=O)NC(=O)[C@H](Cc1c[nH]cn1)NC(=O)CNC(=O)CNC(=O)[C@@H](N)CO)[C@@H](C)O)C(C)C)C(=O)N[C@@H](CO)C(=O)N[C@@H](CCCCN)C(=O)N[C@@H](CCC(N)=O)C(=O)NCC(=O)N1CCC[C@H]1C(=O)N1CCC[C@H]1C(=O)NCC(=O)N[C@@H](CC(=O)O)C(=O)N[C@@H](Cc1ccccc1)C(=O)N[C@@H](CCC(=O)O)C(=O)N[C@@H](CCC(=O)O)C(=O)N[C@H](C(=O)N1CCC[C@H]1C(=O)N[C@@H](CO)C(=O)N[C@@H](CC(=O)O)C(=O)N[C@@H](CCC(=O)O)C(=O)N[C@H](C(=O)N[C@H](C(=O)N[C@@H](CCC(=O)O)C(=O)O)[C@@H](C)CC)[C@@H](C)CC)[C@@H](C)CC [L16P, G17P] (H-SGGHQTAVPKISKQGPPGDFEEIPSDEIIE-OH)
- fold drop in potency compared with avathrin: > 25 fold
- Hill slope of thrombin amidolytic inhibition: 0.54±0.02
- IC50 [1]: 181 ± 3.76 nM
- Hill Slope: 0.54 ± 0.02

Structure (SMILES): CC[C@H](C)[C@H](NC(=O)[C@H](CCCCN)NC(=O)[C@@H]1CCCN1C(=O)[C@@H](NC(=O)[C@H](C)NC(=O)[C@@H](NC(=O)[C@H](CCC(N)=O)NC(=O)[C@H](Cc1c[nH]cn1)NC(=O)CNC(=O)CNC(=O)[C@@H](N)CO)[C@@H](C)O)C(C)C)C(=O)N[C@@H](C)C(=O)N[C@@H](CCCCN)C(=O)N[C@@H](CCC(N)=O)C(=O)NCC(=O)N[C@@H](CC(C)C)C(=O)NCC(=O)NCC(=O)N[C@@H](CC(=O)O)C(=O)N[C@@H](Cc1ccccc1)C(=O)N[C@@H](CCC(=O)O)C(=O)N[C@@H](CCC(=O)O)C(=O)N[C@H](C(=O)N1CCC[C@H]1C(=O)N[C@@H](CO)C(=O)N[C@@H](CC(=O)O)C(=O)N[C@@H](CCC(=O)O)C(=O)N[C@H](C(=O)N[C@H](C(=O)N[C@@H](CCC(=O)O)C(=O)O)[C@@H](C)CC)[C@@H](C)CC)[C@@H](C)CC [Peptide S12A] (H-SGGHQTAVPKIAKQGLGGDFEEIPSDEIIE-OH; N-terminus and C-terminus assumed)
- fold drop in potency compared with avathrin: > 10 fold and 20 fold
- Hill slope of thrombin amidolytic inhibition: 0.62±0.01
- IC50 [1]: 101 ± 1.32 nM
- Hill Slope: 0.62 ± 0.01
- Ki [2]: 6.07 ± 0.18 nM

Structure (SMILES): CC[C@H](C)[C@H](NC(=O)[C@H](CCCCN)NC(=O)[C@@H]1CCCN1C(=O)[C@@H](NC(=O)[C@H](C)NC(=O)[C@@H](NC(=O)[C@H](CCC(N)=O)NC(=O)[C@H](Cc1c[nH]cn1)NC(=O)CNC(=O)CNC(=O)[C@@H](N)CO)[C@@H](C)O)C(C)C)C(=O)N[C@@H](Cc1c[nH]cn1)C(=O)N[C@@H](CCCCN)C(=O)N[C@@H](CCC(N)=O)C(=O)NCC(=O)N[C@@H](CC(C)C)C(=O)NCC(=O)NCC(=O)N[C@@H](CC(=O)O)C(=O)N[C@@H](Cc1ccccc1)C(=O)N[C@@H](CCC(=O)O)C(=O)N[C@@H](CCC(=O)O)C(=O)N[C@H](C(=O)N1CCC[C@H]1C(=O)N[C@@H](CO)C(=O)N[C@@H](CC(=O)O)C(=O)N[C@@H](CCC(=O)O)C(=O)N[C@H](C(=O)N[C@H](C(=O)N[C@@H](CCC(=O)O)C(=O)O)[C@@H](C)CC)[C@@H](C)CC)[C@@H](C)CC [Peptide S12H] (H-SGGHQTAVPKIHKQGLGGDFEEIPSDEIIE-OH; N-terminus and C-terminus assumed)
- fold drop in potency compared with avathrin: 2 fold
- Hill slope of thrombin amidolytic inhibition: 0.88±0.02
- IC50 [1]: 18.5 ± 0.32 nM
- Hill Slope: 0.88 ± 0.02
- Ki [2]: 1.23 ± 0.04 nM

Structure (SMILES): CC[C@H](C)[C@H](NC(=O)[C@H](C)NC(=O)[C@H](CC(=O)O)NC(=O)[C@H](CC(=O)O)NC(=O)[C@@H]1CCCN1C(=O)[C@@H](NC(=O)[C@H](CCC(=O)O)NC(=O)[C@H](CCC(=O)O)NC(=O)[C@H](Cc1ccccc1)NC(=O)[C@H](CC(=O)O)NC(=O)CNC(=O)[C@@H]1CCCN1C(=O)[C@@H]1CCCN1C(=O)[C@H](C)NC(=O)[C@@H](NC(=O)[C@H](CO)NC(=O)[C@H](Cc1ccc(O)cc1)NC(=O)[C@H](CCSC)NC(=O)[C@H](CCCCN)NC(=O)[C@@H]1CCCN1C(=O)[C@@H](NC(=O)[C@H](C)NC(=O)[C@@H](NC(=O)[C@H](CC(=O)O)NC(=O)CNC(=O)[C@H](CCC(N)=O)NC(=O)[C@H](CC(=O)O)NC(=O)[C@@H](N)CO)C(C)C)[C@@H](C)CC)[C@@H](C)O)[C@@H](C)CC)C(=O)N[C@@H](CCC(=O)O)C(=O)N[C@@H](CCC(=O)O)C(=O)O [UV003] (H-SDQGDVAIPKMYSTAPPGDFEEIPDDAIEE-OH)
- IC50 [1]: 0.6 ± 0.2 nM
- Ki [2]: 0.00421 ± 0.00096 nM

Structure (SMILES): CC[C@H](C)[C@H](NC(=O)[C@H](C)NC(=O)[C@H](CC(=O)O)NC(=O)[C@H](CC(=O)O)NC(=O)[C@@H]1CCCN1C(=O)[C@@H](NC(=O)[C@H](CCC(=O)O)NC(=O)[C@H](CCC(=O)O)NC(=O)[C@H](Cc1ccccc1)NC(=O)[C@H](CC(=O)O)NC(=O)CNC(=O)[C@@H]1CCCN1C(=O)[C@@H]1CCCN1C(=O)[C@H](C)NC(=O)[C@@H](NC(=O)[C@H](CCCCN)NC(=O)[C@H](Cc1c[nH]cn1)NC(=O)[C@H](CCSC)NC(=O)[C@H](CCCCN)NC(=O)[C@@H]1CCCN1C(=O)[C@H](CCC(=O)O)NC(=O)[C@H](C)NC(=O)[C@H](CCCNC(=N)N)NC(=O)[C@@H](NC(=O)[C@H](C)NC(=O)[C@H](CCC(=O)O)NC(=O)[C@H](CC(=O)O)NC(=O)[C@@H](N)CO)C(C)C)[C@@H](C)O)[C@@H](C)CC)C(=O)N[C@@H](CCC(=O)O)C(=O)N[C@@H](CCC(=O)O)C(=O)O [UV004] (H-SDEAVRAEPKMHKTAPPGDFEEIPDDAIEE-OH)
- IC50 [1]: 0.46 ± 0.08 nM
- Ki [2]: 0.00455 ± 0.00037 nM

Structure (SMILES): CC[C@H](C)[C@H](NC(=O)[C@H](C)NC(=O)[C@H](CCCNC(=N)N)NC(=O)[C@@H](NC(=O)[C@H](C)NC(=O)[C@H](CCC(=O)O)NC(=O)[C@H](CC(=O)O)NC(=O)[C@@H](N)CO)C(C)C)C(=O)N1CCC[C@H]1C(=O)N[C@@H](CCCCN)C(=O)N[C@@H](CCSC)C(=O)N[C@@H](Cc1ccc(O)cc1)C(=O)N[C@@H](CO)C(=O)N[C@H](C(=O)N[C@@H](C)C(=O)N1CCC[C@H]1C(=O)N1CCC[C@H]1C(=O)NCC(=O)N[C@@H](CC(=O)O)C(=O)N[C@@H](Cc1ccccc1)C(=O)N[C@@H](CCC(=O)O)C(=O)N[C@@H](CCC(=O)O)C(=O)N[C@H](C(=O)N1CCC[C@H]1C(=O)N[C@@H](CCC(=O)O)C(=O)N[C@@H](CCC(=O)O)C(=O)N[C@@H](Cc1ccc(O)cc1)C(=O)N[C@@H](CC(C)C)C(=O)N[C@@H](CC(=O)O)C(=O)N[C@@H](CC(=O)O)C(=O)N[C@@H](CCC(=O)O)C(=O)N[C@@H](CO)C(=O)O)[C@@H](C)CC)[C@@H](C)O [UV005]
- fold drop in affinity for thrombin compared to ultravariegin: around 3.6 fold
- IC50 (IC50 of inhibition of thrombin amidolytic activity, FIG. 17 legend): 0.91 ± 0.47 nM
- Ki [2]: 0.016 ± 0.00305 nM
